Experiments:
MOLT-4 = test: NCI-60 anticancer screening (SRB); format: cell-based; conditions: Homo sapiens; MOLT-4, leukemia; one dose 10 μM; read-out: Growth Inhibition Percentage (GI %)
HCT-15 = test: NCI-60 anticancer screening (SRB); format: cell-based; conditions: Homo sapiens; HCT-15, colon cancer; one dose 10 μM; read-out: Growth Inhibition Percentage (GI %)
SF-268 = test: NCI-60 anticancer screening (SRB); format: cell-based; conditions: Homo sapiens; SF-268, CNS cancer; one dose 10 μM; read-out: Growth Inhibition Percentage (GI %)
PC-3 = test: NCI-60 anticancer screening (SRB); format: cell-based; conditions: Homo sapiens; PC-3, prostate cancer; one dose 10 μM; read-out: Growth Inhibition Percentage (GI %)
NCI/ADR-RES = test: NCI-60 anticancer screening (SRB); format: cell-based; conditions: Homo sapiens, ovarian cancer, one dose 10 μM, read-out: Growth Inhibition Percentage (GI %)
M14 = test: NCI-60 anticancer screening (SRB); format: cell-based; conditions: Homo sapiens; M14, melanoma; one dose 10 μM; read-out: Growth Inhibition Percentage (GI %)
NCI 60 cancer cell lines = test: NCI-60 anticancer screening (SRB), whole panel; format: cell-based, human; conditions: mean across the NCI-60 panel; one dose 10 μM
SF-295 = test: NCI-60 anticancer screening (SRB); format: cell-based; conditions: Homo sapiens; SF-295, CNS cancer; one dose 10 μM; read-out: Growth Inhibition Percentage (GI %)
EGFR^WT = EGFR^WT (Homo sapiens, UniProt P00533); test: EGFR kinase inhibitory assay (HTRF)
EGFR^WT, sequence (P00533 25-1210): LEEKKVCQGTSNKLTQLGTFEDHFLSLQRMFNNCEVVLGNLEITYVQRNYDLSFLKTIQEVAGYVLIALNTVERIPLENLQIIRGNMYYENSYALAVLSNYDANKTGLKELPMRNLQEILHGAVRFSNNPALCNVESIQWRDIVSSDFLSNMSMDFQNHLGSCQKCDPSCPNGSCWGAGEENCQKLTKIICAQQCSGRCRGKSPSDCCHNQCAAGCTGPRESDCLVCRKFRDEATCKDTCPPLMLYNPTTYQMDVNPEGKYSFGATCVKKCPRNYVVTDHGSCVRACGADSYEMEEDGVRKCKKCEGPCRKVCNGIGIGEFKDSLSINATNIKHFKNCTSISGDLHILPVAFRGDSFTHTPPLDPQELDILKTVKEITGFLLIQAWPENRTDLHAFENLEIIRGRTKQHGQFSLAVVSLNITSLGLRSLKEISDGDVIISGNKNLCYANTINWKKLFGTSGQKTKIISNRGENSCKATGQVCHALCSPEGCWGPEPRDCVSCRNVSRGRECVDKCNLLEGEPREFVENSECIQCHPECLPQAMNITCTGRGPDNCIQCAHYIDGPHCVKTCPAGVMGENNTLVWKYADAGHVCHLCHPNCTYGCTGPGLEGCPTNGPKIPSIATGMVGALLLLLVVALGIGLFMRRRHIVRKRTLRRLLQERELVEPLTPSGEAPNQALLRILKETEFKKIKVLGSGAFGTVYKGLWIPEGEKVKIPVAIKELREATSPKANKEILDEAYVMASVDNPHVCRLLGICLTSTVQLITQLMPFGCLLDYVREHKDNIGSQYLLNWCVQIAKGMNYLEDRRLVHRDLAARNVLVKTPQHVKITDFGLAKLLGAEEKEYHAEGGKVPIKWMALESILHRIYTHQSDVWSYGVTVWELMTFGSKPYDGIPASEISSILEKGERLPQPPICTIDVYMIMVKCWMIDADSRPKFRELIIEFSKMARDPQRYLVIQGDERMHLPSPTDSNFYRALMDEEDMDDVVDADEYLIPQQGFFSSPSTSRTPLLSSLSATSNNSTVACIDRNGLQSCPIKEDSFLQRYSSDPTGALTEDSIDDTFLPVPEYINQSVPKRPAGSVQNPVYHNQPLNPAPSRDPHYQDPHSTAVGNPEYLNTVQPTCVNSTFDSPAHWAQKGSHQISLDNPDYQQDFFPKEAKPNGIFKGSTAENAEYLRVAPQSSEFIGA

EGFR^L858R = EGFR^L858R (Homo sapiens, UniProt P00533, L858R); test: biochemical
EGFR^L858R, sequence (P00533 25-1210 L858R): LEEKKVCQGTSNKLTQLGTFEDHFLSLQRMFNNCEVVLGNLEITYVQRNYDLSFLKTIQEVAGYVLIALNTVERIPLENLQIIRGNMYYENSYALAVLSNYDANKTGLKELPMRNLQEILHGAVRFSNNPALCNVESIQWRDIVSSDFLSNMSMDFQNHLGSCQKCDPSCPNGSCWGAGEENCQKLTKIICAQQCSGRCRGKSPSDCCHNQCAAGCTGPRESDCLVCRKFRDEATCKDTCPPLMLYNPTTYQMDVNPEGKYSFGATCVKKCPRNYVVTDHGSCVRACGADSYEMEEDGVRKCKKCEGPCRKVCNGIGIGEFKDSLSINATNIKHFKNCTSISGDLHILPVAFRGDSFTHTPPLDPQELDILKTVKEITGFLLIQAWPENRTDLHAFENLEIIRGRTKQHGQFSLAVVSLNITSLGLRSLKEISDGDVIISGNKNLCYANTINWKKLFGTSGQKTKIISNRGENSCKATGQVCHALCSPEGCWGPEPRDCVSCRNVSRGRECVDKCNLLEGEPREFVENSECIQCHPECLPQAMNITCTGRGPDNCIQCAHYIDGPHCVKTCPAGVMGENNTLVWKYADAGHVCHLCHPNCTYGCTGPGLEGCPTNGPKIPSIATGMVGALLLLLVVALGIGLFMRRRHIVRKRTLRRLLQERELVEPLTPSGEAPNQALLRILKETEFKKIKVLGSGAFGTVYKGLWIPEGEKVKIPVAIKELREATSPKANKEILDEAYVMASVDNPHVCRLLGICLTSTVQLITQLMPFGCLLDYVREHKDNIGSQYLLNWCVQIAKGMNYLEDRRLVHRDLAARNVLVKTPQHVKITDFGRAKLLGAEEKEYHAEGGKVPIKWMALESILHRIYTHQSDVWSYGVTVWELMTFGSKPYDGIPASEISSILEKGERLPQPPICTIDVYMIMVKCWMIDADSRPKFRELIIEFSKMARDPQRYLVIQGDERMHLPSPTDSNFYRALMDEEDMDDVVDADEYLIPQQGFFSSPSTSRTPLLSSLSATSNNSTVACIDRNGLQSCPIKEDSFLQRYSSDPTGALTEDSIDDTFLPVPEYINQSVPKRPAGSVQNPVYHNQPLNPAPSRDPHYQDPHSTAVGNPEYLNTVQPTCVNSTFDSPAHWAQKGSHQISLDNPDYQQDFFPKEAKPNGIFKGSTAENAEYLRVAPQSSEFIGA

EGFR^T790M = EGFR^T790M (Homo sapiens, UniProt P00533, T790M); test: biochemical
EGFR^T790M, sequence (P00533 25-1210 T790M): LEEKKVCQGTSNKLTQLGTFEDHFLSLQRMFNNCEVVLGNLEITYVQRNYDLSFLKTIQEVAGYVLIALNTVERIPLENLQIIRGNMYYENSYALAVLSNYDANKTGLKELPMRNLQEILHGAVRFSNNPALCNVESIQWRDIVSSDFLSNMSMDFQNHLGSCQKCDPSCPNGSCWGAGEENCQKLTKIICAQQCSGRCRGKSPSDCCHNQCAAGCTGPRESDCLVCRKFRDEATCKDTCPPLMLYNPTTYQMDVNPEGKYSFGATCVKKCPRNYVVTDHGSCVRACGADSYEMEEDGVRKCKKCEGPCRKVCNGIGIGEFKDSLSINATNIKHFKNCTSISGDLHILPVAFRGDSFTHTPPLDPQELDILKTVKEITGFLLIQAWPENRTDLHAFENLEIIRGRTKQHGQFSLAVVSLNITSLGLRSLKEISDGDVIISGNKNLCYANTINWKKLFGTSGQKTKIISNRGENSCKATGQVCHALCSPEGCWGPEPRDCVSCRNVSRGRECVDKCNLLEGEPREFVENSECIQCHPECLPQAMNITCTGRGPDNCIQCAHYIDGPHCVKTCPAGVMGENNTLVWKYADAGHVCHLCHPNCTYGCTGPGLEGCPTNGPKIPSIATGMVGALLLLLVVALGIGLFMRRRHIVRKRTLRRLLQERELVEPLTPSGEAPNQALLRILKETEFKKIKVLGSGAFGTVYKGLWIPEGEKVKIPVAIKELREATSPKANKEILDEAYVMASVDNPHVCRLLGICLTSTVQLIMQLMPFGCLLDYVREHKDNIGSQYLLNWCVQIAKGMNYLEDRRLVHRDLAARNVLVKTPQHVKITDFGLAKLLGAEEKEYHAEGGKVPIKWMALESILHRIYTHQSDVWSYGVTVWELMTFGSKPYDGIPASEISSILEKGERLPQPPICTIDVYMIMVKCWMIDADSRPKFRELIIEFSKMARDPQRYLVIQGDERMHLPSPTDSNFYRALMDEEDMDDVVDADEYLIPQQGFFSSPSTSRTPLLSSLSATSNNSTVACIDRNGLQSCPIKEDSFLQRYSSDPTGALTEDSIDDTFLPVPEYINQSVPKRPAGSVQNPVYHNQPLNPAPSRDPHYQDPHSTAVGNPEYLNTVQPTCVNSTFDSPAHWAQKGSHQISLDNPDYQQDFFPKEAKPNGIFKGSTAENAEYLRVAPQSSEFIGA

HS 578T = test: NCI-60 anticancer screening (SRB); format: cell-based; conditions: Homo sapiens; HS 578T, breast cancer; one dose 10 μM; read-out: Growth Inhibition Percentage (GI %)
HOP-62 = test: NCI-60 anticancer screening (SRB); format: cell-based; conditions: Homo sapiens; HOP-62, NSC lung cancer; one dose 10 μM; read-out: Growth Inhibition Percentage (GI %)
UACC-62 = test: NCI-60 anticancer screening (SRB); format: cell-based; conditions: Homo sapiens; UACC-62, melanoma; one dose 10 μM; read-out: Growth Inhibition Percentage (GI %)
DU-145 = test: NCI-60 anticancer screening (SRB); format: cell-based; conditions: Homo sapiens; DU-145, prostate cancer; one dose 10 μM; read-out: Growth Inhibition Percentage (GI %)
UACC-257 = test: NCI-60 anticancer screening (SRB); format: cell-based; conditions: Homo sapiens; UACC-257, melanoma; one dose 10 μM; read-out: Growth Inhibition Percentage (GI %)
MDA-MB-435 = test: NCI-60 anticancer screening (SRB); format: cell-based; conditions: Homo sapiens; MDA-MB-435, melanoma; one dose 10 μM; read-out: Growth Inhibition Percentage (GI %)
HCT-116 = test: NCI-60 anticancer screening (SRB); format: cell-based; conditions: Homo sapiens; HCT-116, colon cancer; one dose 10 μM; read-out: Growth Inhibition Percentage (GI %)
IGROV1 = test: NCI-60 anticancer screening (SRB); format: cell-based; conditions: Homo sapiens, IGROV-1; IGROV1, ovarian cancer; one dose 10 μM; read-out: Growth Inhibition Percentage (GI %)
NCI-H522 = test: NCI-60 anticancer screening (SRB); format: cell-based; conditions: Homo sapiens; NCI-H522, NSC lung cancer; one dose 10 μM; read-out: Growth Inhibition Percentage (GI %)
HT29 = test: NCI-60 anticancer screening (SRB); format: cell-based; conditions: Homo sapiens, HT-29; HT29, colon cancer; one dose 10 μM; read-out: Growth Inhibition Percentage (GI %)
RXF 393 = test: NCI-60 anticancer screening (SRB); format: cell-based; conditions: Homo sapiens; RXF 393, renal cancer; one dose 10 μM; read-out: Growth Inhibition Percentage (GI %)
K-562 = test: NCI-60 anticancer screening (SRB); format: cell-based; conditions: Homo sapiens, K562; K-562, leukemia; one dose 10 μM; read-out: Growth Inhibition Percentage (GI %)
HL-60(TB) = test: NCI-60 anticancer screening (SRB); format: cell-based; conditions: Homo sapiens, leukemia, one dose 10 μM, read-out: Growth Inhibition Percentage (GI %)
SF-539 = test: NCI-60 anticancer screening (SRB); format: cell-based; conditions: Homo sapiens; SF-539, CNS cancer; one dose 10 μM; read-out: Growth Inhibition Percentage (GI %)
UO-31 = test: NCI-60 anticancer screening (SRB); format: cell-based; conditions: Homo sapiens; UO-31, renal cancer; one dose 10 μM; read-out: Growth Inhibition Percentage (GI %)
NCI-H460 = test: NCI-60 anticancer screening (SRB); format: cell-based; conditions: Homo sapiens; NCI-H460, NSC lung cancer; one dose 10 μM; read-out: Growth Inhibition Percentage (GI %)
MCF7 = test: NCI-60 anticancer screening (SRB); format: cell-based; conditions: Homo sapiens; MCF7, breast cancer; one dose 10 μM; read-out: Growth Inhibition Percentage (GI %)
COLO 205 = test: NCI-60 anticancer screening (SRB); format: cell-based; conditions: Homo sapiens; COLO 205, colon cancer; one dose 10 μM; read-out: Growth Inhibition Percentage (GI %)
OVCAR-8 = test: NCI-60 anticancer screening (SRB); format: cell-based; conditions: Homo sapiens; OVCAR-8, ovarian cancer; one dose 10 μM; read-out: Growth Inhibition Percentage (GI %)

| SMILES | inhibition at 10 µM (MOLT-4) | inhibition at 10 µM (HCT-15) | inhibition at 10 µM (SF-268) | inhibition at 10 µM (PC-3) | inhibition at 10 µM (NCI/ADR-RES) | inhibition at 10 µM (M14) | GI % mean (NCI 60 cancer cell lines) | inhibition at 10 µM (SF-295) | IC50 (EGFR^WT) | IC50 (EGFR^L858R) | IC50 (EGFR^T790M) | inhibition at 10 µM (HS 578T) | inhibition at 10 µM (HOP-62) | inhibition at 10 µM (UACC-62) | inhibition at 10 µM (DU-145) | inhibition at 10 µM (UACC-257) | inhibition at 10 µM (MDA-MB-435) | inhibition at 10 µM (HCT-116) | inhibition at 10 µM (IGROV1) | inhibition at 10 µM (NCI-H522) | further results |
| --- | --- | --- | --- | --- | --- | --- | --- | --- | --- | --- | --- | --- | --- | --- | --- | --- | --- | --- | --- | --- | --- |
| CCOC(=O)C1=C(N)N(c2ccc(Cl)cc2)C2=C(C(=O)CC(C)(C)C2)C1c1cccc(Cl)c1Cl (racemic) [10b, (±)-Ethyl 2-amino-1–(4-chorophenyl)-4–(2,3-dichlorophenyl)-7,7-dimethyl-5-oxo-1-phenyl-1,4,5,6,7,8-hexahydroquinoline-3-carboxylate] | 70% | 62% | 22% | 76% | 32% | 16% | 36% | 26% | 205 ± 90 nM | 878 ± 6 nM | 954 ± 8 nM | < 10% | 16% | 34% | 18% | 44% | 25% | 71% | < 10% | 30% | inhibition at 10 µM (HT29): 32%; inhibition at 10 µM (RXF 393): 27%; inhibition at 10 µM (K-562): 71%; inhibition at 10 µM (HL-60(TB)): 77%; inhibition at 10 µM (SF-539): 22%; inhibition at 10 µM (UO-31): 49%; inhibition at 10 µM (NCI-H460): 53%; inhibition at 10 µM (MCF7): 52%; inhibition at 10 µM (COLO 205): 41%; melting point: 250 to 252 °C; inhibition at 10 µM (OVCAR-8): 25% |
| CCOC(=O)C1=C(N)N(c2ccc(Cl)cc2)C2=C(C(=O)CC(C)(C)C2)C1c1ccccc1Br (racemic) [6f, (±)-Ethyl 2-amino-4–(2-bromophenyl)-1–(4-chlorophenyl)-7,7-dimethyl-5-oxo-1,4,5,6,7,8-hexahydroquinoline-3-carboxylate] | < 10% | 53% | 17% | 71% | 14% | 24% | 24% | 18% | 313 ± 120 nM | 480 ± 3 nM | 590 ± 4 nM | < 10% | < 10% | 36% | < 10% | 42% | < 10% | 60% | < 10% | 43% | inhibition at 10 µM (HT29): 44%; inhibition at 10 µM (RXF 393): < 10%; inhibition at 10 µM (K-562): < 10%; inhibition at 10 µM (HL-60(TB)): 68%; inhibition at 10 µM (SF-539): < 10%; inhibition at 10 µM (UO-31): 40%; inhibition at 10 µM (NCI-H460): 43%; inhibition at 10 µM (MCF7): 47%; inhibition at 10 µM (COLO 205): 45%; melting point: 210 to 212 °C; inhibition at 10 µM (OVCAR-8): 14% |
